# Experimental data published in ChEMBL document CHEMBL3885881, “DrugMatrix”.
# Species on record: Rattus norvegicus
# Experiment: DrugMatrix - Regimen: Daily Repeat
# Type: toxicity, organism-based, Sprague-Dawley
# Parameters: regimen Daily Repeat, gender Male, age 6-8 weeks
# Details: in vivo, po, route oral GAVAGE, […]; for ABSOLUTE BASOPHIL / ABSOLUTE EOSINOPHIL / ABSOLUTE LYMPHOCYTE / ABSOLUTE MONOCYTE / ABSOLUTE SEGMENTED NEUTROPHIL / BASOPHIL / EOSINOPHIL / ERYTHROCYTE COUNT / HEMATOCRIT / HEMOGLOBIN / LEUKOCYTE COUNT / LYMPHOCYTE / MEAN CORPUSCULAR HEMOGLOBIN / MEAN CORPUSCULAR HEMOGLOBIN CONCENTRATION / MEAN CORPUSCULAR VOLUME / MONOCYTE / NEUTROPHIL / NUCLEATED RED BLOOD CELLS / PLATELET COUNT: tissue Blood; for ALANINE AMINOTRANSFERASE / ALBUMIN / ALKALINE PHOSPHATASE / ASPARTATE AMINOTRANSFERASE / BLOOD UREA NITROGEN / CARBON DIOXIDE / CHLORIDE / CHOLESTEROL / CREATINE PHOSPHOKINASE / CREATININE / GLUCOSE / LACTATE DEHYDROGENASE / LIPASE / PHOSPHORUS / POTASSIUM / SODIUM / TOTAL BILIRUBIN / TOTAL PROTEIN / URIC ACID: tissue Plasma
# [1] = 0 mg/kg, 72 h, dose level Control, time 3 day
# [2] = 0 mg/kg, 120 h, dose level Control, time 5 day
# [3] = 280 mg/kg, 72 h, dose level High, time 3 day
smiles,measurement,setting,value
CC/C(=C(/CC)c1ccc(O)cc1)c1ccc(O)cc1 [DIETHYLSTILBESTROL],ABSOLUTE BASOPHIL,[1],0 CELLS/uL
same,ABSOLUTE EOSINOPHIL,[1],14 CELLS/uL
same,ABSOLUTE LYMPHOCYTE,[1],11144.67 CELLS/uL
same,ABSOLUTE MONOCYTE,[1],22.5 CELLS/uL
same,ABSOLUTE SEGMENTED NEUTROPHIL,[1],535.5 CELLS/uL
same,BASOPHIL,[1],0%
same,EOSINOPHIL,[1],0.17%
same,ERYTHROCYTE COUNT,[1],5.08 x10E6/uL
same,HEMATOCRIT,[1],32.32%
same,HEMOGLOBIN,[1],12.87 G/DL
same,LEUKOCYTE COUNT,[1],11.72 x10E3/uL
same,LYMPHOCYTE,[1],94.67%
same,MEAN CORPUSCULAR HEMOGLOBIN,[1],25.37 pg
same,MEAN CORPUSCULAR HEMOGLOBIN CONCENTRATION,[1],39.85 G/DL
same,MEAN CORPUSCULAR VOLUME,[1],63.58 fL
same,MONOCYTE,[1],0.17%
same,NEUTROPHIL,[1],5%
same,NUCLEATED RED BLOOD CELLS,[1],0 /100WBC
same,PLATELET COUNT,[1],1084 x10E3/uL
same,ALANINE AMINOTRANSFERASE,[1],67.5 u/L
same,ALBUMIN,[1],4.02 G/DL
same,ALKALINE PHOSPHATASE,[1],374.17 u/L
same,ASPARTATE AMINOTRANSFERASE,[1],83.5 u/L
same,BLOOD UREA NITROGEN,[1],14.5 mg/dL
same,CARBON DIOXIDE,[1],30 mmol/L
same,CHLORIDE,[1],100.5 MEQ/L
same,CHOLESTEROL,[1],71.33 mg/dL
same,CREATINE PHOSPHOKINASE,[1],268.33 u/L
same,CREATININE,[1],0.16 mg/dL
same,GLUCOSE,[1],170.5 mg/dL
same,LACTATE DEHYDROGENASE,[1],81.17 u/L
same,LIPASE,[1],16.67 u/L
same,PHOSPHORUS,[1],10.07 mg/dL
same,POTASSIUM,[1],5.03 MEQ/L
same,SODIUM,[1],142.92 MEQ/L
same,TOTAL BILIRUBIN,[1],0.17 mg/dL
same,TOTAL PROTEIN,[1],5.63 G/DL
same,URIC ACID,[1],0.5 mg/dL
same,ABSOLUTE BASOPHIL,[2],0 CELLS/uL
same,ABSOLUTE EOSINOPHIL,[2],37.5 CELLS/uL
same,ABSOLUTE LYMPHOCYTE,[2],8049.5 CELLS/uL
same,ABSOLUTE MONOCYTE,[2],82.83 CELLS/uL
same,ABSOLUTE SEGMENTED NEUTROPHIL,[2],646.83 CELLS/uL
same,BASOPHIL,[2],0%
same,EOSINOPHIL,[2],0.5%
same,ERYTHROCYTE COUNT,[2],5.36 x10E6/uL
same,HEMATOCRIT,[2],33.9%
same,HEMOGLOBIN,[2],13.02 G/DL
same,LEUKOCYTE COUNT,[2],8.82 x10E3/uL
same,LYMPHOCYTE,[2],90.17%
same,MEAN CORPUSCULAR HEMOGLOBIN,[2],24.32 pg
same,MEAN CORPUSCULAR HEMOGLOBIN CONCENTRATION,[2],38.42 G/DL
same,MEAN CORPUSCULAR VOLUME,[2],63.32 fL
same,MONOCYTE,[2],1.17%
same,NEUTROPHIL,[2],8.17%
same,NUCLEATED RED BLOOD CELLS,[2],0.17 /100WBC
same,PLATELET COUNT,[2],1231.5 x10E3/uL
same,ALANINE AMINOTRANSFERASE,[2],62 u/L
same,ALBUMIN,[2],3.97 G/DL
same,ALKALINE PHOSPHATASE,[2],303.67 u/L
same,ASPARTATE AMINOTRANSFERASE,[2],84.5 u/L
same,BLOOD UREA NITROGEN,[2],14.83 mg/dL
same,CARBON DIOXIDE,[2],31.83 mmol/L
same,CHLORIDE,[2],97 MEQ/L
same,CHOLESTEROL,[2],68.83 mg/dL
same,CREATINE PHOSPHOKINASE,[2],411.33 u/L
same,CREATININE,[2],0.16 mg/dL
same,GLUCOSE,[2],170.17 mg/dL
same,LACTATE DEHYDROGENASE,[2],88.5 u/L
same,LIPASE,[2],9.5 u/L
same,PHOSPHORUS,[2],9.98 mg/dL
same,POTASSIUM,[2],5.72 MEQ/L
same,SODIUM,[2],141.62 MEQ/L
same,TOTAL BILIRUBIN,[2],0.1 mg/dL
same,TOTAL PROTEIN,[2],5.67 G/DL
same,URIC ACID,[2],0.52 mg/dL
same,ABSOLUTE BASOPHIL,[3],0 CELLS/uL
same,ABSOLUTE EOSINOPHIL,[3],42 CELLS/uL
same,ABSOLUTE LYMPHOCYTE,[3],6341.67 CELLS/uL
same,ABSOLUTE MONOCYTE,[3],46.67 CELLS/uL
same,ABSOLUTE SEGMENTED NEUTROPHIL,[3],836.33 CELLS/uL
same,BASOPHIL,[3],0%
same,EOSINOPHIL,[3],0.67%
same,ERYTHROCYTE COUNT,[3],5.06 x10E6/uL
same,HEMATOCRIT,[3],31.5%
same,HEMOGLOBIN,[3],12.2 G/DL
same,LEUKOCYTE COUNT,[3],7.27 x10E3/uL
same,LYMPHOCYTE,[3],87%
same,MEAN CORPUSCULAR HEMOGLOBIN,[3],24.13 pg
same,MEAN CORPUSCULAR HEMOGLOBIN CONCENTRATION,[3],38.77 G/DL
same,MEAN CORPUSCULAR VOLUME,[3],62.27 fL
same,MONOCYTE,[3],0.67%
same,NEUTROPHIL,[3],11.67%
same,NUCLEATED RED BLOOD CELLS,[3],0 /100WBC
same,PLATELET COUNT,[3],1040.67 x10E3/uL
same,ALANINE AMINOTRANSFERASE,[3],64 u/L
same,ALBUMIN,[3],3.57 G/DL
same,ALKALINE PHOSPHATASE,[3],625.67 u/L
same,ASPARTATE AMINOTRANSFERASE,[3],73 u/L
same,BLOOD UREA NITROGEN,[3],16 mg/dL
same,CARBON DIOXIDE,[3],23 mmol/L
same,CHLORIDE,[3],107.33 MEQ/L
same,CHOLESTEROL,[3],31.33 mg/dL
same,CREATINE PHOSPHOKINASE,[3],341 u/L
same,CREATININE,[3],0.17 mg/dL
same,GLUCOSE,[3],156.67 mg/dL
same,LACTATE DEHYDROGENASE,[3],103.33 u/L
same,LIPASE,[3],8 u/L
same,PHOSPHORUS,[3],9 mg/dL
same,POTASSIUM,[3],5.01 MEQ/L
same,SODIUM,[3],147.7 MEQ/L
same,TOTAL BILIRUBIN,[3],0.27 mg/dL
same,TOTAL PROTEIN,[3],5.5 G/DL
same,URIC ACID,[3],0.53 mg/dL
